Experimental data from US9732091B2, “Tryptophanol-derived oxazoloisoindolinones: small-molecule P53 activators” (UNIVERSIDADE DO PORTO, priority 2013, dated 2017).
“Also recorded” adds a separate entry of the source.

Tests used:
HCT116 p53^−/− tumors = assay: xenograft mouse model, HCT116 p53^−/− tumors; format: in vivo, BALB/c mice; conditions: four intraperitoneal injections of 50 mg/kg, preliminary
Method: (§1) FIG. 10 illustrates the antitumor activity of SLMP53-1 in vivo. BALB/c mice, 4-6 weeks old, were implanted subcutaneous xenografts using 1.5×10^6 HCT116 p53^+/+ or HCT116 p53^−/− cells. The treatment was initiated when palpable tumors were established (14 days after the cells were injected), and consisted in 4 intraperitoneal injections (2× per week) of vehicle (control) or 50 mg/kg of SLMP53-1. Xenografts were measured during 24 days. Relative tumor volumes were plotted for control and treated groups by dividing the average tumor volume for each data point by average starting tumor volume.
(§2) Currently, the toxicity and antitumor activity of SLMP53-1 are under study in vivo using xenograft mouse models. […] Because p53-null tumors were not suppressed, it was confirmed that SLMP53-1 inhibited the tumor growth in a wt p53-dependent manner.

MDA-MB-231 cells = assay: apoptosis by flow cytometry (FITC-Annexin V and propidium iodide), MDA-MB-231; format: cell-based, human; conditions: GI50, 24 hours
Method: Apoptosis was analyzed by flow cytometry using FITC-Annexin V and propidium iodide. The effect of compounds was analyzed after 24 hours treatment using the concentration of GI50. Histograms represent one of two independent experiments; quantification of cells in apoptosis represents the mean±S.E.M. of two independent experiments.

mutant p53 R273H = biological target: T1, mutant p53 R273H (Homo sapiens, UniProt P04637, R273H); assay: reactivation of mutant p53 in yeast (growth, CFU), R273H; format: cell-based; conditions: 10 μM; yeast expressing R273H; 44 hours
T1 construct: expressed in transfected cells
Method: FIG. 6 illustrates that SLMP53-1 reactivates mutant p53s R273H, R175H and R280K in yeast. Yeast cells expressing R273H, R280K, Y220C or R175H were incubated in selective medium with 10 μM of SLMP53-1, 10 μM of CP-31398 (for R273H), 10 μM of PRIMA-1 (for R175H and R280K), 50 μM of PhiKan 083 (for Y220C) or DMSO only, for 44 hours. CP-31398, PRIMA-1 and PhiKan 083 were used as positive controls. Results are plotted setting as 100% growth the number of CFU obtained in the presence of DMSO only.
It is also shown that SLMP53-1 can reactivate some mutant p53 forms, particularly R273H, R280K and R175H (FIG. 6).

[1] = system: MDA-MB-231 breast tumor cells; assay: Western blot of p53 and p53-target proteins, PARP cleavage, MDA-MB-231; format: cell-based, human; conditions: 16.6 μM (GI50), 24/48 hours
Source text: FIG. 7 illustrates that SLMP53-1 increases the levels of p53 and of proteins encoded by p53-target genes in MDA-MB-231 breast tumor cells.

MDA-MB-231 (p53R280K) = assay: SRB growth inhibition assay in MDA-MB-231 breast cancer cells; format: cell-based, human; conditions: Homo sapiens, 48 hours incubation, mean±S.E.M.
Method: (§3) Tumor cells were plated at 7.5×10^3 cells/well in 96-well plates and incubated for 24 hours. Cells were then exposed to serial dilutions of SLMP53-1, CP-31398 or PRIMA-1 (from 1.85 to 150 μM). The effect of the compounds was analyzed following 48 hours incubation period, using the sulforhodamine B (SRB) assay. The solvent DMSO corresponding to the maximum concentration used in these assays (0.025%) was included as control. The GI50 value, which is the concentration of compound that causes 50% growth inhibition, was calculated for the tested compounds. Results are the mean±S.E.M. of three independent experiments.

HCT116 p53^+/+ cells = assay: cell cycle analysis by flow cytometry (propidium iodide), HCT116 p53^+/+; format: cell-based, human; conditions: double GI50, 24 hours
Method: FIG. 3 illustrates the effect of SLMP53-1 on cell cycle progression of HCT116 p53^+/+ cells. Cell cycle phases were analyzed by flow cytometry using propidium iodide and quantified using ModFit LT software (Verity Software House Inc., Topsham, USA). Effect of compounds (double GI50) was analyzed after 24 hours treatment. Histograms represent one of two independent experiments; quantification of cell cycle phases represents the mean±S.E.M. of two independent experiments.

HCT116 p53^+/+ = assay: SRB growth inhibition assay in HCT116 p53^+/+ colon carcinoma cells; format: cell-based, human
Method: as §3, with “5.0×10^3” for “7.5×10^3”, “incubation,” for “incubation period,”, “value,” for “value, which is”

HCT116 p53^+/+ tumors = assay: xenograft mouse model, HCT116 p53^+/+ tumors; format: in vivo, BALB/c mice; conditions: four intraperitoneal injections of 50 mg/kg, vs vehicle, preliminary
Method: as §1, §2

HCT116 p53^−/− = assay: Western blot of p53-target proteins, PARP cleavage, HCT116 p53^−/−; format: cell-based, human; conditions: 15.5 μM
Method: FIG. 2 illustrates that SLMP53-1 increases the levels of proteins encoded by p53 target genes (MDM2, p21, PUMA and BAX), and leads to PARP cleavage in colon carcinoma cells with wt p53 (HCT116 p53^+/+), but not in colon carcinoma cells without wt p53 (HCT116 p53^−/−). Western blot analysis was performed for human colon carcinoma cells after 16 (B, D, E) and 24 (A, C, F) hours treatment with 15.5 μM of SLMP53-1, 135 nM doxorubicin (DOXO; positive control) or DMSO only. The protein expression levels were evaluated by quantification of Western Blot band intensity (with Bio-Profile Bio-1D++ software) using GAPDH as loading control.

[2] = apparent permeability coefficients; format: in vitro ADME
[3] = HCT116 p53^+/+ vs HCT116 p53^−/−

C[C@]12OC[C@H](Cc3c[nH]c4ccccc34)N1C(=O)c1ccccc12 [SLMP53-1]
tumor growth (HCT116 p53^−/− tumors): without apparent effects
apoptosis (MDA-MB-231 cells): induces late apoptosis; also recorded: apoptotic cell death
yeast growth inhibition (mutant p53 R273H): significant growth inhibition
PARP cleavage [1]: lead to PARP cleavage
levels of p53 and of BAX, PUMA and p21 [1]: increased
GI50 (MDA-MB-231 (p53R280K)): 16.6 ± 4.2 µM
cell cycle progression (HCT116 p53^+/+ cells): G0/G1-phase cell arrest
GI50 in HCT116 p53^+/+ cells lower than in HCT116 p53^−/− cells (HCT116 p53^+/+; [3]): 2 fold
p53 dependence of anti-proliferative effect (HCT116 p53^+/+; [3]): p53-dependent anti-proliferative effect
GI50 (HCT116 p53^+/+; Homo sapiens, HCT-116, HCT116 p53^+/+, 48 hours incubation, SRB, mean±S.E.M.): 15.5 ± 1.6 µM
tumor growth (HCT116 p53^+/+ tumors): considerably suppressed
PARP cleavage (HCT116 p53^−/−): did not induce PARP cleavage
expression levels of MDM2, p21, PUMA and Bax (HCT116 p53^−/−): did not interfere
apparent permeability coefficients [2]: favorable
